After the bases stand the sugars from the 5' end (letter, count) and the backbone: PS all phosphorothioate, else s phosphorothioate and o phosphodiester by linkage. Methylation of C is not given here. e = 2'-O-(2-methoxyethyl) (MOE); k = constrained ethyl (cEt); d = 2'-deoxy (DNA); m = 2'-O-methyl
Molecular target: HSD17B13
Conditions: ASO, HepaRG

**Q.** How did the target mRNA inhibition (1 µM) turn out when GGAAATATAGAGGGTC (sugars k3 d10 k3, PS) was run?
**A.** The target mRNA inhibition was 50%.

**Q.** For GGAAGATTAATCATAA (sugars k3 d10 k3, PS), which target mRNA inhibition (1 µM) is on record?
**A.** The target mRNA inhibition was 32%.

**Q.** GGAATGCTCATATTAA (sugars k3 d10 k3, PS) was tested. Which target mRNA inhibition (1 µM) did it give?
**A.** The target mRNA inhibition was 19%.

**Q.** With GGAGTATGACAACTGG (sugars k3 d10 k3, PS) as the sequence, how does the target mRNA inhibition (1 µM) read?
**A.** The target mRNA inhibition was 28%.

**Q.** For GGATACCTGAAAAGCC (sugars k3 d10 k3, PS), which target mRNA inhibition (0.02 µM) is on record?
**A.** Its target mRNA inhibition is 2%.

**Q.** What about the target mRNA inhibition (0.078 µM) of the same sequence?
**A.** The target mRNA inhibition was 0%.

**Q.** What about the target mRNA inhibition (0.313 µM) of the same sequence?
**A.** Its target mRNA inhibition is 38%.

**Q.** What about the target mRNA inhibition (1 µM) of the same sequence?
**A.** The target mRNA inhibition was 68%.

**Q.** And the target mRNA inhibition (1.25 µM)?
**A.** The target mRNA inhibition was 69%.

**Q.** And the target mRNA inhibition (5 µM)?
**A.** The target mRNA inhibition was 77%.

**Q.** How did the target mRNA inhibition (1 µM) turn out when GGATAGAGCACATGGC (sugars k3 d10 k3, PS) was run?
**A.** The target mRNA inhibition was 33%.

**Q.** Which target mRNA inhibition (0.02 µM) does the source give for GGATGATGTTCATGGC (sugars k3 d10 k3, PS) here?
**A.** Its target mRNA inhibition is 4%.

**Q.** And the target mRNA inhibition (0.078 µM)?
**A.** The target mRNA inhibition was 40%.

**Q.** What about the target mRNA inhibition (0.313 µM) of the same sequence?
**A.** Its target mRNA inhibition is 75%.

**Q.** And the target mRNA inhibition (1 µM)?
**A.** Its target mRNA inhibition is 82%.

**Q.** What about the target mRNA inhibition (1.25 µM) of the same sequence?
**A.** Its target mRNA inhibition is 80%.

**Q.** And the target mRNA inhibition (5 µM)?
**A.** Its target mRNA inhibition is 76%.

**Q.** For GGCCAAGGGAACACTG (sugars k3 d10 k3, PS), which target mRNA inhibition (1 µM) is on record?
**A.** Its target mRNA inhibition is 36%.

**Q.** Which target mRNA inhibition (1 µM) does the source give for GGCTAAACCCTGGAGC (sugars k3 d10 k3, PS) here?
**A.** Its target mRNA inhibition is 36%.

**Q.** GGCTACTTTCAAACCT (sugars k3 d10 k3, PS) was tested. Which target mRNA inhibition (1 µM) did it give?
**A.** Its target mRNA inhibition is 54%.

**Q.** How did the target mRNA inhibition (1 µM) turn out when GGCTGGATATACTGTC (sugars k3 d10 k3, PS) was run?
**A.** Its target mRNA inhibition is 18%.

**Q.** How did the target mRNA inhibition (1 µM) turn out when GGGAAAAAGTGTGTTC (sugars k3 d10 k3, PS) was run?
**A.** The target mRNA inhibition was 20%.

**Q.** How did the target mRNA inhibition (1 µM) turn out when GGGAAAGAAGTCTCCT (sugars k3 d10 k3, PS) was run?
**A.** Its target mRNA inhibition is 13%.

**Q.** For “GGGAGGTAGCTTTTGT (sugars k3 d9 k3 e1, PS)”, which target mRNA inhibition (1 µM) is on record?
**A.** Its target mRNA inhibition is 40%.

**Q.** GGGAGTCGGATTATTT (sugars k3 d10 k3, PS) was tested. Which target mRNA inhibition (1 µM) did it give?
**A.** Its target mRNA inhibition is 33%.

**Q.** For GGGTCCATTGTTTCTT (sugars k3 d10 k3, PS), which target mRNA inhibition (1 µM) is on record?
**A.** The target mRNA inhibition was 21%.

**Q.** With GGTAACGGTGATCAAA (sugars k3 d10 k3, PS) as the sequence, how does the target mRNA inhibition (1 µM) read?
**A.** Its target mRNA inhibition is 51%.

**Q.** Which target mRNA inhibition (1 µM) does the source give for GGTAAGCCCCATGCCA (sugars k3 d10 k3, PS) here?
**A.** The target mRNA inhibition was 38%.

**Q.** For GGTAAGTATTCCATCT (sugars k3 d10 k3, PS), which target mRNA inhibition (1 µM) is on record?
**A.** Its target mRNA inhibition is 12%.

**Q.** For GGTAGCTTTTGTCCAC (sugars k3 d10 k3, PS), which target mRNA inhibition (1 µM) is on record?
**A.** The target mRNA inhibition was 66%.

**Q.** For GGTCCACTTTTGGTGG (sugars k3 d10 k3, PS), which target mRNA inhibition (1 µM) is on record?
**A.** The target mRNA inhibition was 13%.

**Q.** For “GGTGGTAACGGTGATC (sugars k3 d1 m1 d8 k3, PS)”, which target mRNA inhibition (1 µM) is on record?
**A.** The target mRNA inhibition was 35%.

**Q.** How did the target mRNA inhibition (1 µM) turn out when “GGTGGTAACGGTGATC (sugars k3 d9 k3 e1, PS)” was run?
**A.** Its target mRNA inhibition is 47%.

**Q.** For “GGTTGAGATAAAGCTG (sugars k3 d1 m1 d8 k3, PS)”, which target mRNA inhibition (1 µM) is on record?
**A.** The target mRNA inhibition was 57%.

**Q.** With “GGTTGAGATAAAGCTG (sugars k3 d9 k3 e1, PS)” as the sequence, how does the target mRNA inhibition (1 µM) read?
**A.** The target mRNA inhibition was 67%.

**Q.** Which target mRNA inhibition (1 µM) does the source give for GGTTTTGATACCAGTT (sugars k3 d10 k3, PS) here?
**A.** The target mRNA inhibition was 58%.

**Q.** For GTAAACGACTCTGTAA (sugars k3 d10 k3, PS), which target mRNA inhibition (1 µM) is on record?
**A.** Its target mRNA inhibition is 8%.

**Q.** GTAAATTCTTGCTATC (sugars k3 d10 k3, PS) was tested. Which target mRNA inhibition (1 µM) did it give?
**A.** Its target mRNA inhibition is 40%.

**Q.** GTAAATTGAATAGCCA (sugars k3 d10 k3, PS) was tested. Which target mRNA inhibition (1 µM) did it give?
**A.** The target mRNA inhibition was 55%.

**Q.** How did the target mRNA inhibition (1 µM) turn out when “GTAACGGTGATCAAAT (sugars kkdddddddddkekek, PS)” was run?
**A.** Its target mRNA inhibition is 34%.

**Q.** For GTAACTGTATTAAGAC (sugars k3 d10 k3, PS), which target mRNA inhibition (1 µM) is on record?
**A.** The target mRNA inhibition was 54%.

**Q.** For GTAAGCACAGAAGTTT (sugars k3 d10 k3, PS), which target mRNA inhibition (1 µM) is on record?
**A.** The target mRNA inhibition was 55%.

**Q.** How did the target mRNA inhibition (1 µM) turn out when GTAAGGAGTAGTGGAG (sugars k3 d10 k3, PS) was run?
**A.** Its target mRNA inhibition is 37%.

**Q.** With GTAAGTATTCCATCTA (sugars k3 d10 k3, PS) as the sequence, how does the target mRNA inhibition (1 µM) read?
**A.** The target mRNA inhibition was 45%.

**Q.** GTAATAGCCAGTACAG (sugars k3 d10 k3, PS) was tested. Which target mRNA inhibition (0.02 µM) did it give?
**A.** The target mRNA inhibition was 0%.

**Q.** And the target mRNA inhibition (0.078 µM)?
**A.** The target mRNA inhibition was 9%.

**Q.** What about the target mRNA inhibition (0.313 µM) of the same sequence?
**A.** Its target mRNA inhibition is 45%.

**Q.** What about the target mRNA inhibition (1 µM) of the same sequence?
**A.** The target mRNA inhibition was 77%.

**Q.** What about the target mRNA inhibition (1.25 µM) of the same sequence?
**A.** The target mRNA inhibition was 69%.

**Q.** And the target mRNA inhibition (5 µM)?
**A.** The target mRNA inhibition was 84%.

**Q.** For GTAATAGGCAGTAAAG (sugars k3 d10 k3, PS), which target mRNA inhibition (1 µM) is on record?
**A.** Its target mRNA inhibition is 77%.

**Q.** GTAATATTCATAGTTC (sugars k3 d10 k3, PS) was tested. Which target mRNA inhibition (1 µM) did it give?
**A.** Its target mRNA inhibition is 49%.

**Q.** What does the source list for GTAATCACAAGTAAGG (sugars k3 d10 k3, PS)?
**A.** target mRNA inhibition (0.02 µM): 0%; target mRNA inhibition (0.078 µM): 12%; target mRNA inhibition (0.313 µM): 32%; target mRNA inhibition (1 µM): 70%; target mRNA inhibition (1.25 µM): 70%; target mRNA inhibition (5 µM): 93%

**Q.** For GTAATCAGTTTTCCTC (sugars k3 d10 k3, PS), which target mRNA inhibition (0.02 µM) is on record?
**A.** The target mRNA inhibition was 0%.

**Q.** And the target mRNA inhibition (0.078 µM)?
**A.** The target mRNA inhibition was 0%.

**Q.** What about the target mRNA inhibition (0.313 µM) of the same sequence?
**A.** The target mRNA inhibition was 11%.

**Q.** And the target mRNA inhibition (1 µM)?
**A.** Its target mRNA inhibition is 79%.

**Q.** And the target mRNA inhibition (1.25 µM)?
**A.** The target mRNA inhibition was 36%.

**Q.** And the target mRNA inhibition (5 µM)?
**A.** The target mRNA inhibition was 73%.

**Q.** How did the target mRNA inhibition (1 µM) turn out when GTAATCTTGAGGCAGG (sugars k3 d10 k3, PS) was run?
**A.** The target mRNA inhibition was 51%.

**Q.** How did the target mRNA inhibition (1 µM) turn out when GTACAGTAGGCAGTTT (sugars k3 d10 k3, PS) was run?
**A.** Its target mRNA inhibition is 50%.

**Q.** For GTACATGCCAAGCTTT (sugars k3 d10 k3, PS), which target mRNA inhibition (1 µM) is on record?
**A.** Its target mRNA inhibition is 61%.

**Q.** Which target mRNA inhibition (1 µM) does the source give for GTACTATAGTATTTAC (sugars k3 d10 k3, PS) here?
**A.** The target mRNA inhibition was 27%.

**Q.** For GTAGATGATGGTGATC (sugars k3 d10 k3, PS), which target mRNA inhibition (1 µM) is on record?
**A.** The target mRNA inhibition was 36%.
